Counter-ions that a name gives are not always drawn.
Target: T1, Human Polθ polymerase domain (aa1820-2590) (Homo sapiens, UniProt O75417)
T1 construct: Human Polθ polymerase domain (aa1820-2590) was expressed in E. Coli; made in house; host or cells: E. coli
T1 sequence (O75417 1820-2590): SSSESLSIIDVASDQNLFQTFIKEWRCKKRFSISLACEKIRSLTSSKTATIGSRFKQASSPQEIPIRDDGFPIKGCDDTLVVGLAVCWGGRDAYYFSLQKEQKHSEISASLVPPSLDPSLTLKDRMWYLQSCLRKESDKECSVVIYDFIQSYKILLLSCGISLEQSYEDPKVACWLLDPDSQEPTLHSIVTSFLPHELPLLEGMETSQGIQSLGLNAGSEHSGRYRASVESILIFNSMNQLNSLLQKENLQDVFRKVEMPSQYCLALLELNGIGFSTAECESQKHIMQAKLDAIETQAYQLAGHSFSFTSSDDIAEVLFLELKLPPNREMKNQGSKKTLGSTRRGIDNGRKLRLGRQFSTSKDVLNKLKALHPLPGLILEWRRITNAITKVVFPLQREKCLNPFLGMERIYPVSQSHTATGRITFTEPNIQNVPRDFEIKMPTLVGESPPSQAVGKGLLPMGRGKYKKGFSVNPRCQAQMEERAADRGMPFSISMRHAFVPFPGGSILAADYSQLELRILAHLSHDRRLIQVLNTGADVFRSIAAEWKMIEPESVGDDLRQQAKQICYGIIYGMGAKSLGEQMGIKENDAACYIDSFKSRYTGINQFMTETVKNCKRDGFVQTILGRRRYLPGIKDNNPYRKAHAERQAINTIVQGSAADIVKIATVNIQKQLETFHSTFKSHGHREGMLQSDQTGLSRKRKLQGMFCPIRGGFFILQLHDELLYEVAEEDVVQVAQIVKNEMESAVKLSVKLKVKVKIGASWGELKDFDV
Test: Polθ Polymerase Domain WT KI Assay (PicoGreen)
Type: biochemical
Conditions: 100 nM DNA substrate, 0.156 nM Polθ, initial rates vs inhibitor concentration
How it was run: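 E. coli-expressed human Polθ polymerase domain (aa1820-2590) on annealed DNA II Short/Long primer-template (1.2:1), in 25 mM Tris pH 7.5, NaCl, 5% glycerol, 0.01% Triton X-100, 0.1 mg/ml BSA, 1 mM DTT, 1% DMSO. EDTA-quenched timepoints to 180 min, PicoGreen fluorescence. Initial rates vs inhibitor concentration fitted four-parameter for KI.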

Ki [nM] | Structure (SMILES)
6.27 | Cc1cc(C(F)(F)F)cc(N2C(=O)C[C@@H]3CN(C[C@@H](O)CN(C)C)c4c(Cl)cccc4N(C)C(=O)[C@H]32)n1 (racemic) [Example 132a, (3aR,11aS)-6-chloro-5-((S/R)-3-(dimethylamino)-2-hydroxypropyl)-10-methyl-1-(6-methyl-4-(trifluoromethyl)pyridin-2-yl)-1,3a,4,5,10,11a-hexahydro-2H-benzo[b]pyrrolo[2,3-f][1,4]diazocine-2,11(3H)-dione]
1.55 | Cc1cc(C(F)(F)F)cc(N2C(=O)C[C@@H]3CN(CC4COCCN4)c4c(Cl)cccc4N(C)C(=O)[C@H]32)n1 (single isomer, unassigned) [Example 108b]
8.5 | Cc1cc(C(F)(F)F)cc(N2C(=O)C[C@@H]3CN(CC4CCCN4C)c4c(Cl)cccc4N(C)C(=O)[C@H]32)n1 (single isomer, unassigned) [Example 118a]
1.45 | Cc1cc(C(F)(F)F)cc(N2C(=O)C[C@@H]3CN(Cc4cn5c(n4)C(C)N(C)CC5)c4c(Cl)cccc4N(C)C(=O)[C@H]32)n1 (single isomer, unassigned) [Example 96a]
1.11 | Cc1cc(C(F)(F)F)cc(N2C(=O)C[C@@H]3CN(CC4CNCCO4)c4c(Cl)cccc4N(C)C(=O)[C@H]32)n1 (single isomer, unassigned) [Example 109a]

The next lines start with the compound.

Structure (SMILES) | Ki [nM]
Cc1cc(C(F)(F)F)cc(N2C(=O)C[C@@H]3CN(CCCO)c4c(F)cccc4N(C)C(=O)[C@H]32)n1 [Example 127, (3aR,11aS)-6-Fluoro-5-(3-hydroxypropyl)-10-methyl-1-(6-methyl-4-(trifluoromethyl)pyridin-2-yl)-1,3a,4,5,10,11a-hexahydro-2H-benzo[b]pyrrolo[2,3-f][1,4]diazocine-2,11(3H)-dione] | 7.21
C=CCN1C[C@H]2CC(=O)N(c3cc(C(F)(F)F)cc(C)n3)[C@@H]2C(=O)N(C)c2cccc(Cl)c21 [Example 5, (3aR,11aS)-5-Allyl-6-chloro-10-methyl-1-(6-methyl-4-(trifluoromethyl)pyridin-2-yl)-1,3a,4,5,10,11a-hexahydro-2H-benzo[b]pyrrolo[2,3-f][1,4]diazocine-2,11(3H)-dione] | 1.49
Cc1cc(C(F)(F)F)cc(N2C(=O)C[C@@H]3CN(Cc4nc5n(c4F)CCN(C)C5)c4c(C)cccc4N(C)C(=O)[C@H]32)n1 [Example 83, (3aR,11aS)-5-((3-Fluoro-7-methyl-5,6,7,8-tetrahydroimidazo[1,2-a]pyrazin-2-yl)methyl)-6,10-dimethyl-1-(6-methyl-4-(trifluoromethyl)pyridin-2-yl)-1,3a,4,5,10,11a-hexahydro-2H-benzo[b]pyrrolo[2,3-f][1,4]diazocine-2,11(3H)-dione] | 0.254
Cc1cc(C(F)(F)F)cc(N2C(=O)CC3CN(C4CC(OCc5ccccc5)C4)c4c(F)cccc4N(C)C(=O)C32)n1 (single isomer, unassigned) [Example 92a] | 9.06
Cc1cc(C(F)(F)F)cc(N2C(=O)C[C@@H]3CN(Cc4ccc5c(c4)CN(C)C5)c4c(F)cccc4N(C)C(=O)[C@H]32)n1 [Example 123, (3aR,11aS)-6-Fluoro-10-methyl-1-(6-methyl-4-(trifluoromethyl)pyridin-2-yl)-5-((2-methylisoindolin-5-yl)methyl)-1,3a,4,5,10,11a-hexahydro-2H-benzo[b]pyrrolo[2,3-f][1,4]diazocine-2,11(3H)-dione hydrochloride] | 2.2
Cc1cc(C(F)(F)F)cc(N2C(=O)C[C@@H]3CNc4c(C)cccc4N(C)C(=O)[C@H]32)n1 [Example 3, (3aR,11aS)-6,10-Dimethyl-1-(6-methyl-4-(trifluoromethyl)pyridin-2-yl)-1,3a,4,5,10,11a-hexahydro-2H-benzo[b]pyrrolo[2,3-f][1,4]diazocine-2,11(3H)-dione] | 0.927
Cc1cc(C(F)(F)F)cc(N2C(=O)C[C@@H]3CN(CCN4CCC(C#N)CC4)c4c(C)cccc4N(C)C(=O)[C@H]32)n1 [Example 69, 1-(2-((3aR,11aS)-6,10-Dimethyl-1-(6-methyl-4-(trifluoromethyl)pyridin-2-yl)-2,11-dioxo-1,2,3,3a,4,10,11,11a-octahydro-5H-benzo[b]pyrrolo[2,3-f][1,4]diazocin-5-yl)ethyl)piperidine-4-carbonitrile] | 1.12
Cc1cc(C(F)(F)F)cc(N2C(=O)C[C@@H]3CN(CC[C@H]4CCNC4)c4c(Cl)cccc4N(C)C(=O)[C@H]32)n1 [Example 111, (3aR,11aS)-6-Chloro-10-methyl-1-(6-methyl-4-(trifluoromethyl)pyridin-2-yl)-5-(2-((R)-pyrrolidin-3-yl)ethyl)-1,3a,4,5,10,11a-hexahydro-2H-benzo[b]pyrrolo[2,3-f][1,4]diazocine-2,11(3H)-dione hydrochloride] | 0.619
Cc1cc(C(F)(F)F)cc(N2C(=O)C[C@@H]3CN(CCN(C)CCO)c4c(C)cccc4N(C)C(=O)[C@H]32)n1 [Example 54, (3aR,11aS)-5-(2-((2-Hydroxyethyl)(methyl)amino)ethyl)-6,10-dimethyl-1-(6-methyl-4-(trifluoromethyl)pyridin-2-yl)-1,3a,4,5,10,11a-hexahydro-2H-benzo[b]pyrrolo[2,3-f][1,4]diazocine-2,11(3H)-dione] | 5.56
Cc1cc(C(F)(F)F)cc(N2C(=O)C[C@@H]3CN(c4ccccn4)c4c(F)cccc4N(C)C(=O)[C@H]32)n1 [Example 134, (3aR,11aS)-6-Fluoro-10-methyl-1-(6-methyl-4-(trifluoromethyl)pyridin-2-yl)-5-(pyridin-2-yl)-1,3a,4,5,10,11a-hexahydro-2H-benzo[b]pyrrolo[2,3-f][1,4]diazocine-2,11(3H)-dione] | 104
Cc1cc(C(F)(F)F)cc(N2C(=O)C[C@@H]3CN(CCCN(C)C)c4c(Cl)cccc4N(C)C(=O)[C@H]32)n1 [Example 135, (3aR,11aS)-6-Chloro-5-(3-(dimethylamino)propyl)-10-methyl-1-(6-methyl-4-(trifluoromethyl)pyridin-2-yl)-1,3a,4,5,10,11a-hexahydro-2H-benzo[b]pyrrolo[2,3-f][1,4]diazocine-2,11(3H)-dione] | 3.49
Cc1cc(C(F)(F)F)cc(N2C(=O)C[C@@H]3CN(CCN4CC[C@@H](C#N)C4)c4c(C)cccc4N(C)C(=O)[C@H]32)n1 [Example 71, (R)-1-(2-((3aR,11aS)-6,10-Dimethyl-1-(6-methyl-4-(trifluoromethyl)pyridin-2-yl)-2,11-dioxo-1,2,3,3a,4,10,11,11a-octahydro-5H-benzo[b]pyrrolo[2,3-f][1,4]diazocin-5-yl)ethyl)pyrrolidine-3-carbonitrile] | 1.15
CCN1C(=O)[C@@H]2[C@H](CC(=O)N2c2cc(C(F)(F)F)cc(C)n2)CN(CCN2CCN(C)CC2)c2c(Cl)cccc21 [Example 146, (3aR,11aS)-6-Chloro-10-ethyl-1-(6-methyl-4-(trifluoromethyl)pyridin-2-yl)-5-(2-(4-methylpiperazin-1-yl)ethyl)-1,3a,4,5,10,11a-hexahydro-2H-benzo[b]pyrrolo[2,3-f][1,4]diazocine-2,11(3H)-dione] | 7.01
CC(=O)N1CCN(CCN2C[C@H]3CC(=O)N(c4cc(C(F)(F)F)cc(C)n4)[C@@H]3C(=O)N(C)c3cccc(Cl)c32)[C@@H](C)C1 [Example 11, (3aR,11aS)-5-(2-((S)-4-Acetyl-2-methylpiperazin-1-yl)ethyl)-6-chloro-10-methyl-1-(6-methyl-4-(trifluoromethyl)pyridin-2-yl)-1,3a,4,5,10,11a-hexahydro-2H-benzo[b]pyrrolo[2,3-f][1,4]diazocine-2,11(3H)-dione] | 1.52
